Data as given in ChEMBL document CHEMBL1201862, “PubChem BioAssay data set” (2004).
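Results reflect a 48-hour exposure of cells in 96-well plates to compound at five concentrations. At the GI50, growth is halved.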 Active and inactive are the calls of the source. No stated cut-off is given here; in the data, active = GI50 up to about 1.1 µM and inactive = higher.

Key:
Assay in all cases: NCI anticancer screen, dose series, 48 h
HCC 2998 = test system: HCC 2998
SW-620 = test system: SW-620
A549 = test system: A549
T47D = test system: T47D
COLO 205 = test system: COLO 205
OVCAR-5 = test system: OVCAR-5
RXF 393 = test system: RXF 393
HCT-116 = test system: HCT-116
SF-295 = test system: SF-295
NCI/ADR-RES = test system: NCI/ADR-RES
SK-MEL-28 = test system: SK-MEL-28
BT-549 = test system: BT-549
PC-3 = test system: PC-3
EKVX = test system: EKVX
HL-60 = test system: HL-60
ACHN = test system: ACHN
IGROV-1 = test system: IGROV-1
CCRF-CEM = test system: CCRF-CEM
Malme-3M = test system: Malme-3M
SNB-75 = test system: SNB-75

Measured: GI50

COC1=CC(=O)c2c(O)ccc(O)c2C1=O
inactive: HCC 2998 4.49 µM | SW-620 3.85 µM | A549 1.98 µM | T47D 18.1 µM | COLO 205 1.5 µM | OVCAR-5 18.4 µM | RXF 393 16.6 µM | HCT-116 4.6 µM | SF-295 2 µM | NCI/ADR-RES 19.8 µM | SK-MEL-28 1.92 µM | BT-549 2.44 µM | PC-3 18.5 µM | EKVX 20.2 µM | HL-60 3.77 µM | ACHN 16.5 µM | IGROV-1 18.1 µM | CCRF-CEM 8.57 µM | SNB-75 1.91 µM
active: Malme-3M 0.0607 µM

O=C1c2c(O)ccc(O)c2C(=O)c2c(NCCNC(=O)C(O)C(O)C(O)C(O)CO)ccc(NCCNC(=O)C(O)C(O)C(O)C(O)CO)c21 (stereo not given)
active: HCC 2998 0.135 µM | SW-620 0.0213 µM | A549 < 0.01 µM | T47D 0.0102 µM | COLO 205 < 0.01 µM | OVCAR-5 0.192 µM | RXF 393 0.221 µM | HCT-116 0.0332 µM | SF-295 < 0.01 µM | NCI/ADR-RES 0.133 µM | SK-MEL-28 0.211 µM | BT-549 0.121 µM | PC-3 0.131 µM | EKVX 0.165 µM | HL-60 < 0.01 µM | ACHN < 0.01 µM | IGROV-1 < 0.0383 µM | CCRF-CEM 0.0316 µM | Malme-3M 0.212 µM | SNB-75 0.0356 µM

O=NN1CCCS1(=O)=O
inactive: HCC 2998 > 100 µM | SW-620 > 100 µM | A549 > 100 µM | T47D > 100 µM | COLO 205 > 100 µM | OVCAR-5 > 100 µM | RXF 393 > 100 µM | HCT-116 > 100 µM | SF-295 > 100 µM | NCI/ADR-RES > 100 µM | SK-MEL-28 > 100 µM | BT-549 > 100 µM | PC-3 > 100 µM | EKVX > 100 µM | HL-60 > 100 µM | ACHN > 100 µM | IGROV-1 > 100 µM | CCRF-CEM > 100 µM | Malme-3M > 100 µM | SNB-75 12.6 µM

O=C(CNC(=O)c1ccccc1)Oc1c(Cl)c(Cl)c(Cl)c(Cl)c1Cl
inactive: HCC 2998 27.7 µM | SW-620 21.6 µM | A549 29 µM | T47D 42.6 µM | COLO 205 35 µM | OVCAR-5 47.2 µM | RXF 393 39.4 µM | HCT-116 56.4 µM | SF-295 33.2 µM | NCI/ADR-RES 31 µM | SK-MEL-28 39 µM | BT-549 20.5 µM | PC-3 24.7 µM | EKVX 21.5 µM | HL-60 24.6 µM | ACHN 25.2 µM | IGROV-1 27.8 µM | CCRF-CEM 38.7 µM | Malme-3M 28.8 µM | SNB-75 45.5 µM

Cc1nnc(N)nc1C/C=C/C(Sc1ccc(Cl)cc1)c1ccccc1 (stereo not given)
inactive: HCC 2998 9.38 µM | SW-620 4.2 µM | A549 2.82 µM | T47D 11.2 µM | COLO 205 4.5 µM | OVCAR-5 4.89 µM | RXF 393 4.45 µM | HCT-116 3.59 µM | SF-295 1.91 µM | NCI/ADR-RES 4.69 µM | SK-MEL-28 6.78 µM | BT-549 2.13 µM | PC-3 3.01 µM | EKVX 3.64 µM | HL-60 2.87 µM | ACHN 4.3 µM | IGROV-1 1.82 µM | Malme-3M 3.06 µM | SNB-75 4.45 µM
active: CCRF-CEM 0.235 µM

O=[N+]([O-])c1ccc(C(O)(C#CCN2CCCC2)c2ccccc2)cc1 (stereo not given)
inactive: HCC 2998 16.2 µM | SW-620 98.9 µM | A549 81.5 µM | T47D 28.5 µM | COLO 205 18 µM | OVCAR-5 57.9 µM | RXF 393 57.9 µM | HCT-116 46.6 µM | SF-295 30.4 µM | NCI/ADR-RES 69.5 µM | SK-MEL-28 17.6 µM | BT-549 77.4 µM | PC-3 30.4 µM | EKVX 54.6 µM | HL-60 18.4 µM | ACHN 56.2 µM | IGROV-1 25.8 µM | CCRF-CEM 24.5 µM | Malme-3M 16.6 µM | SNB-75 30.1 µM

Cc1ccc(C(=O)/C=C2/Nc3ccccc3NC2=O)c(C)c1
inactive: HCC 2998 29.4 µM | SW-620 27.2 µM | A549 13.7 µM | T47D 22.1 µM | COLO 205 62.1 µM | OVCAR-5 44.7 µM | RXF 393 7.52 µM | HCT-116 11.8 µM | SF-295 9.46 µM | NCI/ADR-RES 7.89 µM | SK-MEL-28 14.7 µM | BT-549 35.4 µM | PC-3 18.2 µM | EKVX 8.77 µM | HL-60 23.4 µM | ACHN 8.36 µM | IGROV-1 12.7 µM | CCRF-CEM 62.5 µM | Malme-3M 54.6 µM | SNB-75 6.32 µM

Cc1cc(S(=O)(=O)Nc2nc(N)nc(N(C)C)n2)c(SCC(=O)O)cc1Cl
inactive: HCC 2998 > 10 µM | SW-620 > 10 µM | A549 > 10 µM | T47D > 10 µM | COLO 205 > 10 µM | OVCAR-5 > 10 µM | RXF 393 > 10 µM | HCT-116 > 10 µM | SF-295 > 10 µM | NCI/ADR-RES > 10 µM | SK-MEL-28 > 10 µM | BT-549 > 10 µM | PC-3 > 10 µM | EKVX > 10 µM | HL-60 > 10 µM | ACHN > 10 µM | IGROV-1 > 10 µM | CCRF-CEM > 10 µM | Malme-3M > 10 µM | SNB-75 > 10 µM

N#Cc1c(NC(=O)C(F)(F)F)sc2c3c(=O)c4ccccc4c(=O)c=3oc3ccccc3c12
active: Malme-3M 1.1 µM
inactive: HCC 2998 13.9 µM | SW-620 25.1 µM | A549 19 µM | T47D 21.4 µM | COLO 205 14.7 µM | OVCAR-5 30.7 µM | RXF 393 10 µM | HCT-116 11.9 µM | SF-295 11.7 µM | NCI/ADR-RES 24.8 µM | SK-MEL-28 20.4 µM | BT-549 19.6 µM | PC-3 8.93 µM | EKVX 24.6 µM | HL-60 4.46 µM | ACHN 21.1 µM | IGROV-1 11.9 µM | CCRF-CEM 4.24 µM | SNB-75 16.8 µM

CO/N=C(\C(=O)O/C(=N/C1CCCCC1)NC1CCCCC1)c1csc(NC(c2ccccc2)(c2ccccc2)c2ccccc2)n1
inactive: HCC 2998 > 10 µM | SW-620 > 10 µM | A549 > 10 µM | T47D > 10 µM | COLO 205 > 10 µM | OVCAR-5 > 10 µM | RXF 393 5.05 µM | HCT-116 > 10 µM | SF-295 > 10 µM | NCI/ADR-RES > 10 µM | SK-MEL-28 > 10 µM | BT-549 > 10 µM | PC-3 > 10 µM | EKVX > 10 µM | HL-60 > 10 µM | ACHN > 10 µM | IGROV-1 > 10 µM | CCRF-CEM > 10 µM | Malme-3M > 10 µM | SNB-75 > 10 µM

CCOC(=O)C1C(=O)CC(O)(c2ccccc2)C(C(=O)OCC)C1c1ccc(OC)cc1 (stereo not given)
inactive: HCC 2998 37.9 µM | SW-620 12.2 µM | A549 47 µM | T47D 42.2 µM | COLO 205 12.8 µM | OVCAR-5 50.6 µM | RXF 393 13.6 µM | HCT-116 4.94 µM | SF-295 3.24 µM | NCI/ADR-RES 19.6 µM | SK-MEL-28 28.8 µM | BT-549 34.7 µM | PC-3 16.4 µM | EKVX > 50.7 µM | HL-60 10.5 µM | ACHN 43.4 µM | IGROV-1 20 µM | CCRF-CEM 18.2 µM | Malme-3M 26.2 µM
active: SNB-75 0.479 µM

COC(=O)C1=C(OC(=O)/C(=C/c2ccccc2)c2ccc(Cl)cc2Cl)C(C(=O)OC)[C@@]2(O)[C@@H](C(=O)OC)[C@H](C)C[C@@H]1[C@@H]2C(=O)OC (stereo not given in full)
inactive: HCC 2998 > 100 µM | SW-620 > 100 µM | A549 > 100 µM | T47D > 100 µM | COLO 205 > 100 µM | OVCAR-5 > 100 µM | RXF 393 > 100 µM | HCT-116 > 100 µM | SF-295 > 100 µM | NCI/ADR-RES > 100 µM | SK-MEL-28 > 100 µM | BT-549 > 100 µM | PC-3 > 100 µM | EKVX > 100 µM | HL-60 > 100 µM | ACHN 42 µM | IGROV-1 > 100 µM | CCRF-CEM > 100 µM | Malme-3M > 100 µM | SNB-75 75.9 µM

O=C(N/N=C\c1ccc2ccccc2c1)Nc1ccc([N+](=O)[O-])cc1
inactive: HCC 2998 22.1 µM | SW-620 32.7 µM | A549 26.4 µM | T47D 17.9 µM | COLO 205 21.6 µM | OVCAR-5 22.5 µM | RXF 393 26.4 µM | HCT-116 21.1 µM | SF-295 22.5 µM | NCI/ADR-RES 20.9 µM | SK-MEL-28 26.2 µM | BT-549 24.3 µM | PC-3 17.2 µM | EKVX 47.3 µM | HL-60 > 57.9 µM | ACHN 24.6 µM | IGROV-1 29.7 µM | CCRF-CEM 28.6 µM | Malme-3M 27.7 µM | SNB-75 42.4 µM
